Experimental data taken from PubChem BioAssay AID248 (DTP/NCI, 2004).
Where “and” joins values, the source holds several entries; their conditions need not be identical. Equal entries are not always repeated. Inconclusive results and toxic doses are left out. Rule as the data show it: active = T/C of 150% or more; inactive = T/C below 125%.

Test system: L1210 leukemia ip in BDF1 mice, survival T/C
Test: NCI In Vivo Anticancer Drug Screen. Data for tumor model L1210 Leukemia (intraperitoneal) in B6D2F1 (BDF1) mice
Conditions: endpoint: mean survival time, higher = longer survival
How it was run: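 Antitumor effect is assessed in tumor-bearing animals. Survival in the compound arm is compared with a vehicle-dosed control arm and expressed as their quotient.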

[1] = dose: 25.0 mg/kg/injection, schedule: Q01DX009 (ip), vehicle: saline
[2] = dose: 50.0 mg/kg/injection, schedule: Q01DX009 (ip), vehicle: saline
[3] = dose: 200.0 mg/kg/injection, schedule: Q01DX001 (ip), vehicle: saline
[4] = dose: 100.0 mg/kg/injection, schedule: Q01DX009 (ip), vehicle: saline with Tween-80
[5] = dose: 100.0 mg/kg/injection, schedule: Q04DX003 (ip), vehicle: Klucel (hydroxypropylcellulose) (HPC)
[6] = dose: 200.0 mg/kg/injection, schedule: Q01DX009 (ip), vehicle: saline with Tween-80
[7] = dose: 200.0 mg/kg/injection, schedule: Q04DX003 (ip), vehicle: Klucel (hydroxypropylcellulose) (HPC)
[8] = dose: 400.0 mg/kg/injection, schedule: Q01DX009 (ip), vehicle: saline with Tween-80
[9] = dose: 400.0 mg/kg/injection, schedule: Q04DX003 (ip), vehicle: Klucel (hydroxypropylcellulose) (HPC)
[10] = dose: 100.0 mg/kg/injection, schedule: Q04DX003 (ip), vehicle: saline
[11] = dose: 200.0 mg/kg/injection, schedule: Q04DX003 (ip), vehicle: saline
[12] = dose: 400.0 mg/kg/injection, schedule: Q04DX003 (ip), vehicle: saline
[13] = dose: 100.0 mg/kg/injection, schedule: Q04DX003 (ip), vehicle: saline with Tween-80
[14] = dose: 200.0 mg/kg/injection, schedule: Q04DX003 (ip), vehicle: saline with Tween-80
[15] = dose: 400.0 mg/kg/injection, schedule: Q04DX003 (ip), vehicle: saline with Tween-80
[16] = dose: 25.0 mg/kg/injection, schedule: Q04DX003 (ip), vehicle: saline with Tween-80
[17] = dose: 50.0 mg/kg/injection, schedule: Q04DX003 (ip), vehicle: saline with Tween-80

Measured: T/C

CC1CN1P1(N2CC2C)=NP(N2CC2C)(N2CC2C)=NP(N2CC2C)(N2CC2C)=N1 (stereo unspecified)
inactive: dose: 12.5 mg/kg/injection, schedule: Q01DX001 (ip), vehicle: saline 106 % of control | dose: 12.5 mg/kg/injection, schedule: Q04DX003 (ip), vehicle: saline 116 % of control | dose: 25.0 mg/kg/injection, schedule: Q01DX001 (ip), vehicle: saline 105 % of control | [1] 118 % of control | dose: 25.0 mg/kg/injection, schedule: Q04DX003 (ip), vehicle: saline 116 % of control | dose: 50.0 mg/kg/injection, schedule: Q01DX001 (ip), vehicle: saline 120 % of control | [2] 111 % of control | dose: 50.0 mg/kg/injection, schedule: Q04DX003 (ip), vehicle: saline 112 % of control | dose: 75.0 mg/kg/injection, schedule: Q04DX003 (ip), vehicle: acetone 120 % of control | dose: 100.0 mg/kg/injection, schedule: Q01DX009 (ip), vehicle: saline 106 % of control | dose: 170.0 mg/kg/injection, schedule: Q04DX003 (ip), vehicle: acetone 105 % of control | [3] 104 % of control

O=C1/C(=C\c2ccccc2)C(NC2CCCCC2)c2ccccc21 (stereo unspecified)
inactive: dose: 3.12 mg/kg/injection, schedule: Q01DX009 (ip), vehicle: Klucel (hydroxypropylcellulose) (HPC) 108 % of control | dose: 6.25 mg/kg/injection, schedule: Q01DX009 (ip), vehicle: Klucel (hydroxypropylcellulose) (HPC) 101 % of control | dose: 12.5 mg/kg/injection, schedule: Q01DX009 (ip), vehicle: Klucel (hydroxypropylcellulose) (HPC) 95 % of control

CN1CCN(Cc2c(O)ccc3c2OC(C)(C)C2=C3CCCC2)CC1
inactive: dose: 100.0 mg/kg/injection, schedule: Q01DX001 (ip), vehicle: saline 89 % of control | [3] 98 % of control

Cc1cc(C)c(NC(=S)NC(=O)c2ccco2)c(C)c1
inactive: [4] 97 % of control | [5] 98 % of control | [6] 93 % of control | [7] 96 % of control | [8] 95 % of control | [9] 102 % of control

CC(=O)/C(C1=NCCC1)=C(/C)O
inactive: [10] 92 % of control | [11] 98 % of control | [12] 98 % of control

Cc1nsc(N(NC(=O)c2ccccc2)C(=O)c2ccccc2)n1
inactive: dose: 75.0 mg/kg/injection, schedule: Q01DX001 (ip), vehicle: carboxymethylcellulose (CMC) 95 % of control

CN(C)C1(C)CCC2C3CCC4=CC(=O)CCC4(C)C3CCC21C (stereo unspecified)
inactive: dose: 50.0 mg/kg/injection, schedule: Q01DX001 (sc), vehicle: steriod suspending solution 98 % of control | dose: 100.0 mg/kg/injection, schedule: Q01DX001 (sc), vehicle: steriod suspending solution 98 % of control | dose: 200.0 mg/kg/injection, schedule: Q01DX001 (sc), vehicle: steriod suspending solution 95 % of control | dose: 400.0 mg/kg/injection, schedule: Q01DX001 (sc), vehicle: steriod suspending solution 98 % of control

N#CC12OC1(C#N)C(=O)C1(Cl)C3C=CC(C3)C1(Cl)C2=O (stereo unspecified)
inactive: dose: 12.5 mg/kg/injection, schedule: Q01DX009 (ip), vehicle: saline 102 % of control | [1] 102 % of control | [2] 96 % of control and 106 % of control

CCCCOP(=O)(OCCCC)c1ccccc1OC
inactive: dose: 25.0 mg/kg/injection, schedule: Q04DX002 (ip), vehicle: saline with Tween-80 99 % of control | dose: 50.0 mg/kg/injection, schedule: Q04DX002 (ip), vehicle: saline with Tween-80 99 % of control | dose: 100.0 mg/kg/injection, schedule: Q04DX002 (ip), vehicle: saline with Tween-80 96 % of control and 89 % of control

CC(C)C1CC2CCC3C(C)(C(=O)O)CCCC3(C)C2CC1CO (stereo unspecified)
inactive: [13] 92 % of control | [14] 92 % of control | [15] 93 % of control

c1ccc(Cn2nnc(-c3ccccc3)n2)cc1
inactive: [10] 97 % of control | [11] 94 % of control | [12] 89 % of control

Nc1nnnn1CC(Br)CBr (stereo unspecified)
inactive: dose: 100.0 mg/kg/injection, schedule: Q04DX002 (ip), vehicle: saline 104 % of control | dose: 200.0 mg/kg/injection, schedule: Q04DX002 (ip), vehicle: saline 101 % of control | dose: 400.0 mg/kg/injection, schedule: Q04DX002 (ip), vehicle: saline 90 % of control

CCOC(=O)C(C(C)=O)C(=O)OCC
inactive: dose: 25.0 mg/kg/injection, schedule: Q01DX009 (ip), vehicle: other 101 % of control | dose: 50.0 mg/kg/injection, schedule: Q01DX009 (ip), vehicle: other 103 % of control | dose: 100.0 mg/kg/injection, schedule: Q01DX009 (ip), vehicle: other 109 % of control | dose: 200.0 mg/kg/injection, schedule: Q01DX009 (ip), vehicle: other 100 % of control | dose: 400.0 mg/kg/injection, schedule: Q01DX009 (ip), vehicle: other 95 % of control

CCCCCCCCCC[P+](=O)CCCCCCCCCC
inactive: [16] 92 % of control | [17] 89 % of control | [14] 89 % of control | [15] 89 % of control

O=S1(=O)CC(c2ccc(F)cc2)Nc2ccccc21 (stereo unspecified)
inactive: [5] 102 % of control | [7] 102 % of control | [9] 97 % of control

O=C1C(Cl)=C(Cl)C2(Cl)C1(Cl)C1(Cl)C(=O)C(Cl)=C(Cl)C12Cl (stereo unspecified)
inactive: dose: 100.0 mg/kg/injection, schedule: Q01DX001 (ip), vehicle: Klucel (hydroxypropylcellulose) (HPC) 99 % of control | [5] 104 % of control | dose: 200.0 mg/kg/injection, schedule: Q01DX001 (ip), vehicle: Klucel (hydroxypropylcellulose) (HPC) 97 % of control | [7] 98 % of control | dose: 400.0 mg/kg/injection, schedule: Q01DX001 (ip), vehicle: Klucel (hydroxypropylcellulose) (HPC) 94 % of control | [9] 96 % of control

CC(=O)N(C)c1ccc(NC(=O)Nc2cc([N+](=O)[O-])ccc2F)cc1
inactive: [5] 91 % of control | [7] 97 % of control | [9] 92 % of control

O=[N+]([O-])C(CO)(CO)CO
inactive: [10] 104 % of control | [11] 101 % of control | [12] 101 % of control

CCCCNC(C)(C)C(SSSC(C)=O)c1ccco1 (stereo unspecified)
inactive: dose: 12.5 mg/kg/injection, schedule: Q01DX009 (ip), vehicle: saline with Tween-80 100 % of control | dose: 12.5 mg/kg/injection, schedule: Q04DX003 (ip), vehicle: saline with Tween-80 102 % of control | dose: 25.0 mg/kg/injection, schedule: Q01DX009 (ip), vehicle: saline with Tween-80 104 % of control | [16] 106 % of control | dose: 50.0 mg/kg/injection, schedule: Q01DX009 (ip), vehicle: saline with Tween-80 108 % of control | [17] 96 % of control | [13] 102 % of control

Cc1cc(Sc2cc(C)[n+]([O-])c(C)c2)cc(C)[n+]1[O-]
inactive: [5] 103 % of control | [7] 100 % of control | [9] 114 % of control

CCOC(=O)C1=CN=NC1=[N+]=[N-]
inactive: dose: 10.0 mg/kg/injection, schedule: Q01DX001 (ip), vehicle: saline 96 % of control | dose: 20.0 mg/kg/injection, schedule: Q01DX001 (ip), vehicle: saline 102 % of control

Nc1ccc(CCc2ccc(Cl)cc2S(=O)(=O)F)c(Cl)c1
inactive: dose: 100.0 mg/kg/injection, schedule: Q01DX009 (ip), vehicle: saline sonified 97 % of control | dose: 100.0 mg/kg/injection, schedule: Q04DX003 (ip), vehicle: saline sonified 100 % of control | dose: 200.0 mg/kg/injection, schedule: Q01DX009 (ip), vehicle: saline sonified 92 % of control | dose: 200.0 mg/kg/injection, schedule: Q04DX003 (ip), vehicle: saline sonified 100 % of control | dose: 400.0 mg/kg/injection, schedule: Q01DX009 (ip), vehicle: saline sonified 98 % of control | dose: 400.0 mg/kg/injection, schedule: Q04DX003 (ip), vehicle: saline sonified 96 % of control

CCCCc1ccc(N=Cc2ccc(C=Nc3ccc(CCCC)cc3)cc2)cc1
inactive: [4] 92 % of control | [6] 97 % of control | [8] 94 % of control

Cc1c2ccccc2c(C)c2c1cc(C(=O)O)c1ccccc12
inactive: dose: 200.0 mg/kg/injection, schedule: Q04DX002 (ip), vehicle: Klucel (hydroxypropylcellulose) (HPC) 115 % of control | dose: 400.0 mg/kg/injection, schedule: Q04DX002 (ip), vehicle: Klucel (hydroxypropylcellulose) (HPC) 101 % of control

CC(=O)NCCOc1ccc(N)cc1
inactive: [10] 104 % of control | [11] 98 % of control | [12] 98 % of control
